Key:
Assay in all cases: NCI-60 antiproliferative screen (SRB)
[1] = test system: ACHN; format: cell-based, human; details: Homo sapiens; 10 µM single dose, 48 h; ACHN (Renal); read-out: Growth inhibition (%)
[2] = test system: MDA-MB-468; format: cell-based, human; details: Homo sapiens; 10 µM single dose, 48 h; MDA-MB-468 (Breast); read-out: Growth inhibition (%)
[3] = test system: NCI-H460; format: cell-based, human; details: Homo sapiens; 10 µM single dose, 48 h; NCI-H460 (NSCLC); read-out: Growth inhibition (%)
[4] = test system: HCT-15; format: cell-based, human; details: Homo sapiens; 10 µM single dose, 48 h; HCT-15 (Colon); read-out: Growth inhibition (%)
[5] = test system: CCRF-CEM; format: cell-based, human; details: Homo sapiens; 10 µM single dose, 48 h; CCRF-CEM (Leukemia); read-out: Growth inhibition (%)
[6] = test system: SK-OV-3; format: cell-based, human; details: Homo sapiens; 10 µM single dose, 48 h; SK-OV-3 (Ovarian); read-out: Growth inhibition (%)
[7] = test system: EKVX; format: cell-based, human; details: Homo sapiens; 10 µM single dose, 48 h; EKVX (NSCLC); read-out: Growth inhibition (%)
[8] = test system: DU-145; format: cell-based, human; details: Homo sapiens; 10 µM single dose, 48 h; DU-145 (Prostate); read-out: Growth inhibition (%)
[9] = test system: NCI-H226; format: cell-based, human; details: Homo sapiens; 10 µM single dose, 48 h; NCI-H226 (NSCLC); read-out: Growth inhibition (%)
[10] = test system: MALME-3M; format: cell-based, human; details: Homo sapiens; 10 µM single dose, 48 h; MALME-3M (Melanoma); read-out: Growth inhibition (%)
[11] = test system: SF-268; format: cell-based, human; details: Homo sapiens; 10 µM single dose, 48 h; SF-268 (CNS); read-out: Growth inhibition (%)
[12] = test system: OVCAR-8; format: cell-based, human; details: Homo sapiens; 10 µM single dose, 48 h; OVCAR-8 (Ovarian); read-out: Growth inhibition (%)
[13] = test system: CAKI-1; format: cell-based, human; details: Homo sapiens; 10 µM single dose, 48 h; CAKI-1 (Renal); read-out: Growth inhibition (%)
[14] = test system: HL-60(TB); format: cell-based, human; details: Homo sapiens; 10 µM single dose, 48 h; HL-60(TB) (Leukemia); read-out: Growth inhibition (%)
[15] = test system: SNB-19; format: cell-based, human; details: Homo sapiens; 10 µM single dose, 48 h; SNB-19 (CNS); read-out: Growth inhibition (%)
[16] = test system: MCF7; format: cell-based, human; details: Homo sapiens; 10 µM single dose, 48 h; MCF7 (Breast); read-out: Growth inhibition (%)
[17] = test system: KM12; format: cell-based, human; details: Homo sapiens; 10 µM single dose, 48 h; KM12 (Colon); read-out: Growth inhibition (%)
[18] = test system: UACC-257; format: cell-based, human; details: Homo sapiens; 10 µM single dose, 48 h; UACC-257 (Melanoma); read-out: Growth inhibition (%)
[19] = test system: BT-549; format: cell-based, human; details: Homo sapiens; 10 µM single dose, 48 h; BT-549 (Breast); read-out: Growth inhibition (%)
[20] = test system: OVCAR-5; format: cell-based, human; details: Homo sapiens; 10 µM single dose, 48 h; OVCAR-5 (Ovarian); read-out: Growth inhibition (%)
[21] = test system: OVCAR-4; details: Homo sapiens, OVCAR-4, 48 h, read-out: Growth inhibition (%)
Description: (§1) Anticancer activity was tested against 60 cancer cell lines (NCI-60) after 48h treatments with a single dosage of 10 μM of compounds by using sulforhodamine B assay [39] on the traditional 96-well platform. […] The human cancer cell lines of the NCI-60 panel are grown in RPMI 1640 medium supplemented with 5% FBS (fetal bovine serum) and 2 mM L-glutamine. […] For further analysis of promising compounds, five dose screens were performed against the NCI-60 panel. Drug treatments are performed in 5 doses using 10-fold or ½ log dose dilutions.

[22] = test system: SR; details: Homo sapiens, 48 h, read-out: Growth inhibition (%)
Description: as §1

[23] = test system: LOX IMVI; format: cell-based, human; details: Homo sapiens; 10 µM single dose, 48 h; LOX IMVI (Melanoma); read-out: Growth inhibition (%)
[24] = test system: UO-31; format: cell-based, human; details: Homo sapiens; 10 µM single dose, 48 h; UO-31 (Renal); read-out: Growth inhibition (%)
[25] = test system: A549/ATCC; format: cell-based, human; details: Homo sapiens; 10 µM single dose, 48 h; A549/ATCC (NSCLC); read-out: Growth inhibition (%)
[26] = test system: MOLT-4; format: cell-based; details: Homo sapiens; 10 µM single dose, 48 h; MOLT-4 (Leukemia); read-out: Growth inhibition (%)
[27] = test system: NCI-H522; format: cell-based, human; details: Homo sapiens; 10 µM single dose, 48 h; NCI-H522 (NSCLC); read-out: Growth inhibition (%)
[28] = test system: RPMI-8226; format: cell-based, human; details: Homo sapiens; 10 µM single dose, 48 h; RPMI-8226 (Leukemia); read-out: Growth inhibition (%)
[29] = test system: A498; format: cell-based, human; details: Homo sapiens; 10 µM single dose, 48 h; A498 (Renal); read-out: Growth inhibition (%)
[30] = test system: OVCAR-3; format: cell-based, human; details: Homo sapiens; 10 µM single dose, 48 h; OVCAR-3 (Ovarian); read-out: Growth inhibition (%)

Compound	inhibition at 10 µM [1] [%]	inhibition at 10 µM [2] [%]	inhibition at 10 µM [3] [%]	inhibition at 10 µM [4] [%]	inhibition at 10 µM [5] [%]	inhibition at 10 µM [6] [%]	inhibition at 10 µM [7] [%]	inhibition at 10 µM [8] [%]	inhibition at 10 µM [9] [%]	inhibition at 10 µM [10] [%]	inhibition at 10 µM [11] [%]	inhibition at 10 µM [12] [%]	inhibition at 10 µM [13] [%]	inhibition at 10 µM [14] [%]	inhibition at 10 µM [15] [%]	inhibition at 10 µM [16] [%]	inhibition at 10 µM [17] [%]	inhibition at 10 µM [18] [%]	inhibition at 10 µM [19] [%]	inhibition at 10 µM [20] [%]	also measured
O=C1Nc2ccc(Cl)cc2C1=Cc1ccc(OCc2ccccc2)cc1 (mixture of isomers) [Compound 5c, (E/Z)-3-[4-(Benzyloxy)benzylidene]-5-chloroindolin-2-one]	-1.45	-0.96	-3.66	-4.25	0.21	-1.7	0.85	-5.61	11.1	-13	3.26	-0.47	13.4	-3.22	-1.05	16	-1.02	-6.58	-2.68	-2.92	inhibition at 10 µM [21]: -7.18%; inhibition at 10 µM [22]: -0.06%; inhibition at 10 µM [23]: 0.14%; inhibition at 10 µM [24]: 23.9%; inhibition at 10 µM [25]: -0.99%; inhibition at 10 µM [26]: 3.28%; inhibition at 10 µM [27]: 2.1%; inhibition at 10 µM [28]: -3.85%; inhibition at 10 µM [29]: -2.37%
O=C1Nc2cc(Cl)ccc2C1=Cc1ccc(OCc2ccccc2)cc1 (mixture of isomers) [Compound 5d, (E/Z)-3-[4-(Benzyloxy)benzylidene]-6-chloroindolin-2-one]	5.18	1.52	-4.48	5	-2.18	-3.01	-0.31	-1.25	7.13	-15.4	5.55	-0.41	10.7	-13.1	-3.09	38.4	4.92	-16.1	-1.23	-0.55	inhibition at 10 µM [21]: 3.65%; inhibition at 10 µM [22]: -4.93%; inhibition at 10 µM [23]: 7.32%; inhibition at 10 µM [24]: 23.8%; inhibition at 10 µM [25]: -4.59%; inhibition at 10 µM [26]: 0.86%; inhibition at 10 µM [27]: 0.19%; inhibition at 10 µM [28]: -7.36%; inhibition at 10 µM [29]: 6.98%
O=C1Nc2ccccc2C1=Cc1ccc(OCc2ccccn2)cc1 (mixture of isomers) [Compound 5e, (E/Z)-3-[4-(Pyridin-2-ylmethoxy]benzylidene) indolin-2-one]	33.6	61.7	15	45.9	57.7	16.8	47.3	20.3	40.8	25.4	27.3	29.7	40.8	38.8	39.3	50.8	61.3	12.6	41.2	5.53	inhibition at 10 µM [21]: 30.8%; inhibition at 10 µM [22]: 57.7%; inhibition at 10 µM [24]: 61.2%; inhibition at 10 µM [25]: 29.2%; inhibition at 10 µM [30]: 18.2%; inhibition at 10 µM [26]: 62.5%; inhibition at 10 µM [27]: 24.6%; inhibition at 10 µM [28]: 64%; inhibition at 10 µM [29]: 16.4%

— PMC11124822, “Discovery and Anticancer Screening of Novel Oxindole-Based Derivative Bearing Pyridyl Group as Potent and Selective Dual FLT3/CDK2 Kinase Inhibitor” (Pharmaceuticals, 2024)
